In one assay the target is hFAP (M39-A757) (Homo sapiens (Human), UniProt Q12884). The assay can be described thus: hFAP binding assay (surface plasmon resonance). As to conditions: SPR, 20° C., single cycle kinetics. For orientation: In SPR one partner is held on a chip, and binding of the other changes the refractive index at the surface.
The next assay addresses FAP (Mus musculus (Mouse), UniProt P97321). The assay can be described thus: FAP plasma inhibition assay, mouse plasma. It counts as biochemical. As to conditions: mouse plasma diluted 1:67, Ala-Pro-AMC 75 μM. The method in brief:
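K2EDTA plasma served as enzyme source, human diluted 1:40 and mouse 1:67, in PBS with 0.1% BSA. Compounds ran as a 10-point 3-fold series from 500 nM final, in duplicate, 40 min at rt in the dark, with fluorescence read against a pre-substrate blank. IC50 came from % inhibition versus log concentration.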

The target in assay [1] is Fibroblast Activation Protein alpha (FAP) (Mus musculus (Mouse), UniProt P97321). The assay can be described thus: in vivo.
Protocol: The effect of test compound on FAP enzyme activity in mouse plasma was evaluated in an enzymatic assay using the Fibroblast Activation Protein alpha (FAP) specific fluorogenic substrate dipeptide-Coumarin, Ala-Pro-AMC, (ARI-3144).
Male C57Bl/6 mice (Charles River, Germany), 8 weeks of age, were single housed in a temperature-controlled room with a 12-hour light/dark cycle (06:00-18:00 light). The mice had ad libitum access to water and rodent chow diet (R70, Lactamin, Kimstad, Sweden), and were acclimated for 5 days upon arrival. After acclimation, all mice received a single oral dose of test compound (3 or 10 mg/kg). Blood samples for whole blood compound exposure measurements were taken at 0.25, 0.5, 1, 2, 4, 8 and 24 h post oral dosing. Samples were collected in EDTA capillary tubes (20 μL, K2E, REF 19.447) and were transferred to a 96-deep well plate (NUNC, Thermo Discher Scientific) and stored at −20° C. until further analyses were performed. Blood samples for plasma FAP enzyme activity measurements were taken at 0, 0.25, 0.5, 1, 2, 8 and 24 h post dosing. 25 μL of whole blood was collected in EDTA Microvette® CB 300 (K2E, REF 16.444.100) tubes, and were centrifuged at 4,000×g for 5 min. 10 μL of plasma was then transferred to PCR tubes and stored at −20° C. until further analysis was performed. All blood samples were taken by vena saphena puncture.
Recombinant human FAP (PB-17-1837, construct PL-17-0278, cd33-FAP (27-757)-6His, Mw85926 Da) was used as a standard for this assay. […] The plates were read on a Beckman Paradigm reader with excitation 360 nm and emission 465 nm. Fluorescence measurements were performed with kinetic read every 5 minutes for 60 min at room temperature. Data were analyzed in Excel (IDBS XLfit Add-In) using a Linear Regression (y=k*x+m) model to prepare a human recombinant FAP standard curve.
On the day of the assay, plasma was diluted (1:2) to 20 μL volume in buffer (PBS, 0.1% BSA) and 7.5 μL was transferred to the assay plate (384-well black, fluotrack PS, Greiner 781076). Ala-Pro-AMC (stock solution in 10 mM DMSO) was diluted in buffer (PBS, 0.1% BSA) to 150 μM concentration (180 μL stock solution to 12 mL buffer) and 7.5 μL added to the assay plate followed by a pipetting mix. The plates were read on a Beckman Paradigm reader with excitation 360 nm and emission 465 nm. Fluorescence measurements were performed with kinetic read every 5 minutes for 60 minutes at room temperature. As noted above, FAP cleaves Ala-Pro-AMC to release free AMC which is measured as a fluorescent signal.
The in vivo potency IC50 of each test compound was then estimated by relating the plasma exposure C of the compound to target engagement E in plasma using the following equation:
where E0 is the FAP baseline in plasma prior to dosing and Imax is the maximum effect of the compound. Data from each target engagement experiment were considered separately and therefore slightly different estimates of FAP baseline for each compound were obtained. […] The parameter estimation was done in Phoenix WinNonlin Certara build 8.1.0.3530 with the algorithm ‘Naïve pooled’ as parameter estimation method.
In assay [2] the target is human dipeptidylpeptidase 9 (hDPP9) (Homo sapiens (Human), UniProt Q86TI2). In words: hDPP9 inhibition assay. It counts as biochemical. As to conditions: hDPP9 0.4 nM, Ala-Pro-amino-methylcoumarin 5 μM, n = 1. As to the method: Compounds were tested in a biochemical inhibition assay using human dipeptidylpeptidase 9 (hDPP9) enzyme at 0.4 nM FAC (BPS Bioscience, #80090) and the substrate Ala-Pro-amino-methylcoumarin (BPS Bioscience #80305) at 5 μM FAC. The enzymatic reactions were conducted in duplicate at rt for 30 min in 50 μL DPP assay buffer (BPS Bioscience, #80300). […] The plates were read on a Tecan Infinite M1000 microplate reader with excitation 340 nm and emission 460 nm. Data were analyzed in Graph Pad Prism. IC50 values were determined by plotting % inhibition versus log compound concentration and using a one site dose response model. Raw data signals were normalized using 1% DMSO as 0% control and no enzyme as 100% inhibitor control.

The target in assay [3] is Prolyl endopeptidase, Prolyl Oligopeptidase (hPREP) (Homo sapiens (Human), UniProt P48147). The assay can be described thus: hPrep inhibition assay. It counts as biochemical. The settings on record: hPREP 0.6 nM, Z-Gly-Pro-amino-methylcoumarin 50 μM; read-out: PREP IC50. The method in brief:
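Fluorogenic read-out (340 nm excitation, 460 nm emission) after 20 min at rt, using 50 μM final Z-Gly-Pro-aminomethylcoumarin and 0.6 nM final enzyme, following 15 min compound preincubation. Buffer pH 7.5 with glutathione and Triton X-100. IC50 via one-site model on % inhibition vs log concentration.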

Assay [4] has as its target human dipeptidylpeptidase 7 (hDPP7) (Homo sapiens (Human), UniProt Q9UHL4). The assay can be described thus: hDPP7 inhibition assay. It counts as biochemical. The settings on record: hDPP7 15 nM, Ala-Pro-amino-methylcoumarin 5 μM, n = 1. As for the experimental part:
Compounds were tested in a biochemical inhibition assay using human dipeptidylpeptidase 7 (hDPP7) enzyme at 15 nM FAC (BPS Bioscience, #80070) and the substrate Ala-Pro-amino-methylcoumarin (BPS Bioscience, #80305) at 5 μM FAC. The enzymatic reactions were conducted in duplicate at rt for 30 min in 50 μL DPP assay buffer (BPS Bioscience, #80300). Compound solutions (in DMSO) at 10 CR, 3 fold dilution series were prepared in assay buffer ten-fold higher than the final concentration, and 5 μL of the dilution was added to a 50 μL reaction so that the highest compound concentration was 100 μM FAC and the concentration of DMSO was 1% in all wells. The plates were read on a Tecan Infinite M1000 microplate reader with excitation 340 nm and emission 460 nm. Data were analyzed in Graph Pad Prism. IC50 values were determined by plotting % inhibition versus log compound concentration and using a one site dose response model. Raw data signals were normalized using 1% DMSO as 0% control and no enzyme as 100% inhibitor control.

Assay [5] concerns the target human dipeptidylpeptidase 8 (hDPP8) (Homo sapiens (Human), UniProt Q6V1X1). The assay can be described thus: hDPP8 inhibition assay. It counts as biochemical. The settings on record: Ala-Pro-amino-methylcoumarin 5 μM, n = 1. As for the experimental part: The enzymatic reactions were conducted in duplicate at rt for 30 min in 50 μL DPP assay buffer (BPS Bioscience, #80300). […] The plates were read on a Tecan Infinite M1000 microplate reader with excitation 340 nm and emission 460 nm. Data were analyzed in Graph Pad Prism. IC50 values were determined by plotting % inhibition versus log compound concentration and using a one site dose response model. Raw data signals were normalized using 1% DMSO as 0% control and no enzyme as 100% inhibitor control.

pIC50: −log10 of the molar value.

Chain of hFAP (M39-A757) (Q12884 39-757): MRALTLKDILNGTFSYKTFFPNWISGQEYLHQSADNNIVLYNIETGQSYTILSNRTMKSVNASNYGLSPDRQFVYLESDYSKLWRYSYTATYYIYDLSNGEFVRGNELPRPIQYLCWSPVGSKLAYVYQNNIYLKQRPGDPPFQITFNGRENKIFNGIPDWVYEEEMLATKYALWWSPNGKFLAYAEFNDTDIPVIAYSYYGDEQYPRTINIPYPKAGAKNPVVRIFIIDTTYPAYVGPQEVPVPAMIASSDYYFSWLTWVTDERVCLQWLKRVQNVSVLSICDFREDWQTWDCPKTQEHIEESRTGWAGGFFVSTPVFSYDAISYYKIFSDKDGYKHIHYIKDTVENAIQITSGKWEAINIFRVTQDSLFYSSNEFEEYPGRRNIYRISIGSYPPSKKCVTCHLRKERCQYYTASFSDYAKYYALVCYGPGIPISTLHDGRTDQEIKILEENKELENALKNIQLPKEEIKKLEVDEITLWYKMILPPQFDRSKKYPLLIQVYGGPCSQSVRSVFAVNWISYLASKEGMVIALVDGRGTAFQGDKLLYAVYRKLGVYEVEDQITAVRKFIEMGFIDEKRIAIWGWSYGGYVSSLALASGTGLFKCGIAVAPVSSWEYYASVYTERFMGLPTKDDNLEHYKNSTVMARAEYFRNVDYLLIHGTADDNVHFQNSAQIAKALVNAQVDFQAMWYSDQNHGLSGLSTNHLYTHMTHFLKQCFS
Chain of human dipeptidylpeptidase 8 (hDPP8) (Q6V1X1 whole entry): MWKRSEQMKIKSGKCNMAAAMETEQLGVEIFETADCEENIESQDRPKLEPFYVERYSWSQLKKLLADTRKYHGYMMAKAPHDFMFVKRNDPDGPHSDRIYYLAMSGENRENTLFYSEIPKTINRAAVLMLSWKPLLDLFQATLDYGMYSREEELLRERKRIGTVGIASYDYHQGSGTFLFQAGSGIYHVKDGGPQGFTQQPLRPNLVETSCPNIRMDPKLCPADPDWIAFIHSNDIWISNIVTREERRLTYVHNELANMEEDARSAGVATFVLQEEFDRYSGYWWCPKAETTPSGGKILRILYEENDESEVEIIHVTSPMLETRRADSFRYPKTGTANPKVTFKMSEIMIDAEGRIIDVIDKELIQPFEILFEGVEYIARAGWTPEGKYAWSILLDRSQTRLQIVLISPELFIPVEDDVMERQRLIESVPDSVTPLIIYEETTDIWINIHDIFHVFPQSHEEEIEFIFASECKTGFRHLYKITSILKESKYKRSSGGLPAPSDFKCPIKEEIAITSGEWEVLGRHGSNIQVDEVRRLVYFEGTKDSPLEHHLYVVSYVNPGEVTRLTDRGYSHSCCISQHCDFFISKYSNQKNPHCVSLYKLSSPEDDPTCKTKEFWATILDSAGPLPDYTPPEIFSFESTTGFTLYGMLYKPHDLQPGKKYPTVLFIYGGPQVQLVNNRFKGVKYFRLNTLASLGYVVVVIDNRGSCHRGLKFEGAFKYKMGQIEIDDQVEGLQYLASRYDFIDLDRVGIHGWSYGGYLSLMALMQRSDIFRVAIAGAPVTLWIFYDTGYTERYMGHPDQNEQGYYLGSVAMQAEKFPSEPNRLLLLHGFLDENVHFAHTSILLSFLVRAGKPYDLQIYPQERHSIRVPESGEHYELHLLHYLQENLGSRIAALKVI
Chain of Prolyl endopeptidase, Prolyl Oligopeptidase (hPREP) (P48147 whole entry): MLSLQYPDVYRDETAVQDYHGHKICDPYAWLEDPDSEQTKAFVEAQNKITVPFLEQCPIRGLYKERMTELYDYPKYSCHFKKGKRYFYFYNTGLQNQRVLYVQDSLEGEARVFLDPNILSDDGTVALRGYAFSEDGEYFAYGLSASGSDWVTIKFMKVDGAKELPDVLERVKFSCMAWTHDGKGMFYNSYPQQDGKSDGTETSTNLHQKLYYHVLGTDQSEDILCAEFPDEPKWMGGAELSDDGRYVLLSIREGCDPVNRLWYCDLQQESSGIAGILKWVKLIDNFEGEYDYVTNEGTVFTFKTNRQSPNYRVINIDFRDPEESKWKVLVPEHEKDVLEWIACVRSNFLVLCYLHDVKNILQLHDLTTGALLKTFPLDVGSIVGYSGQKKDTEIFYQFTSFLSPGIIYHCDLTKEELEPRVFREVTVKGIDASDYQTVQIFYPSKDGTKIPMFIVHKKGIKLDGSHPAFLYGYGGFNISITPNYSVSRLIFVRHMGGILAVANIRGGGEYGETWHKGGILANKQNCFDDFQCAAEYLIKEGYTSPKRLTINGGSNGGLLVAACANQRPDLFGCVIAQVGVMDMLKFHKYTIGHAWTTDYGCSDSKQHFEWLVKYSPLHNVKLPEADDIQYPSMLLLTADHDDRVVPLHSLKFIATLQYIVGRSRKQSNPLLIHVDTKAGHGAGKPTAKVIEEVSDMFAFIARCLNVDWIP
Chain of Fibroblast Activation Protein alpha (FAP) (P97321 24-761): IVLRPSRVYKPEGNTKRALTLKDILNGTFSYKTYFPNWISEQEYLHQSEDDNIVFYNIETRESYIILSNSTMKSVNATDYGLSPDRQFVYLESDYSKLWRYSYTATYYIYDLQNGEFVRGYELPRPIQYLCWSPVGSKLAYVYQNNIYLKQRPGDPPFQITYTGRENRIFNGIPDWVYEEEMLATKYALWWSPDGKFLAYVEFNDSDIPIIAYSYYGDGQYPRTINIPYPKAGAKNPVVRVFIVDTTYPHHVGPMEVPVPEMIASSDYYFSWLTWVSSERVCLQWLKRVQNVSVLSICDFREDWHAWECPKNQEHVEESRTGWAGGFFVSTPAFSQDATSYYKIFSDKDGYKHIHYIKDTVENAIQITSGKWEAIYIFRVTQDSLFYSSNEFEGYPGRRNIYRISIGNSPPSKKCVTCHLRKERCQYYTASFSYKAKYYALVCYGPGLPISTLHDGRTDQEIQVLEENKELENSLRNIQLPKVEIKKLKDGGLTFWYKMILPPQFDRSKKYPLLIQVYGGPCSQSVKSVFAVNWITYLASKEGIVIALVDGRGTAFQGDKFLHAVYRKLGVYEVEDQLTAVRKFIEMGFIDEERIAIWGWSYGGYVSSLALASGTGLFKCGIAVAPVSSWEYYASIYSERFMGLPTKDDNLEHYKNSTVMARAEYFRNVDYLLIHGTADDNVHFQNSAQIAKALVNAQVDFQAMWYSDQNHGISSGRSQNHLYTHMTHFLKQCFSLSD
Chain of FAP (P97321 24-761): as above
Chain of human dipeptidylpeptidase 9 (hDPP9) (Q86TI2 whole entry): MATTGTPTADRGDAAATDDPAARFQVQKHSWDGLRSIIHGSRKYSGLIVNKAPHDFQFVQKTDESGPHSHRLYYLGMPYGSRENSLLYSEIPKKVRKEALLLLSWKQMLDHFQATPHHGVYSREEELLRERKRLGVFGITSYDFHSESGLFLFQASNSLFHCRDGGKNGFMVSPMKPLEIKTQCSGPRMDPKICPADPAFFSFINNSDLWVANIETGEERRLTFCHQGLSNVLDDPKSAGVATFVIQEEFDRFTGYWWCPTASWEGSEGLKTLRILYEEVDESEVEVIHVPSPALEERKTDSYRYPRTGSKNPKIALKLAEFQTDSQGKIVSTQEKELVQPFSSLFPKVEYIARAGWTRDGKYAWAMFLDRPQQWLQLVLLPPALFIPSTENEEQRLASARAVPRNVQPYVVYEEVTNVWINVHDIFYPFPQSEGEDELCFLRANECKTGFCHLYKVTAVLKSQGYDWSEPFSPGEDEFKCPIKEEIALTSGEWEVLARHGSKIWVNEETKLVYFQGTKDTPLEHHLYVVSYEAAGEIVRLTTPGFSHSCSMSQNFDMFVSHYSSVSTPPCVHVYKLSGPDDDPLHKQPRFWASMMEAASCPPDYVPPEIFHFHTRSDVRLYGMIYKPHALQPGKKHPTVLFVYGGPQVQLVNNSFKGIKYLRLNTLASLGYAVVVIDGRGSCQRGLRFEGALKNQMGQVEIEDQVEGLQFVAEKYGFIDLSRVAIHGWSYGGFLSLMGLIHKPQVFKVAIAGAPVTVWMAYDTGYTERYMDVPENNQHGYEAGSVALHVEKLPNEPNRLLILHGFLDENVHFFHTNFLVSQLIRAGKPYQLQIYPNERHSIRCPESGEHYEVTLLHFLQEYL

Take `C[C@@H]1CN(c2ccc3nccc(C(=O)NCC(=O)N4CSC[C@H]4C#N)c3c2)C[C@H](C)O1` [Example 68, N-(2-((R)-4-Cyanothiazolidin-3-yl)-2-oxoethyl)-6-((2R,6S)-2,6-dimethylmorpholino)-quinoline-4-carboxamide]: at hFAP (M39-A757), the “hFAP Binding assay k(off)” value is 0.00011 s⁻¹. For the same compound, at hFAP (M39-A757), the “hFAP Binding assay k(on)” value was 1000000 M⁻¹ s⁻¹. Besides, the negative-log IC50 (pIC50) – broadly, the IC50 on a negative log10 scale, so that one unit is a factor of ten – at FAP is 9.30; in assay [1], 7.72; in assay [2], 5.82; in assay [3] it was 5.77; in assay [4], below 4.00; in assay [5] it was 5.18.

The record behind these values is US20230312550A1, “N-(2-(4-CYANOTHIAZOLIDIN-3-YL)-2-OXOETHYL)-QUINOLINE-4-CARBOXAMIDES” (AstraZeneca AB, priority 2020, published 2023).
